Test results published in patent US20240124444A1 (Celgene Corporation, priority 2020, published 2024).

Test system: C. parvum strain UGA1
Test: C. parvum growth inhibition assay (Nluc luminescence in HCT-8 cells)
Type: cell-based, Cryptosporidium parvum
Settings: Cryptosporidium parvum, HCT-8

`FC1(F)CC(c2cc3cnc(NC4CCOCC4)cc3[nH]2)C1` [Example 397, 2-(3,3-difluorocyclobutyl)-N-(tetrahydro-2H-pyran-4-yl)-1H-pyrrolo[3,2-c]pyridin-6-amine] showed an inhibition at 1 µM (single point inhibition at 1 uM, read-out: % inh @ 1 uM C. parvum) of 33 to 66% and an inhibition at 10 µM (single point inhibition at 10 uM, read-out: % inh @ 10 uM C. parvum) of 33 to 66%.
